From patent US12188050B2, “Kidney organoids and methods of manufacturing” (MURDOCH CHILDRENS RESEARCH INSTITUTE, priority 2017, dated 2025)
“Also recorded” adds a separate entry of the source.

Experiments:
Type in all cases: cell-based, human
[1] = test system: C32 derived swirler kidney organoids; assay: Glomerular podocyte maturation in swirler organoids with atRA (immunofluorescence, qPCR)
Text: FIG. 7. All Trans-Retinoic Acid helps in the improvement of glomerular maturation in kidney micro-organoids. Immunofluorescence analysis of C32 swirler organoids generated by swirler suspension culture. (A) Organoids generated without supplementation at atRA. […] (C) qPCR analysis of organoids generated with and without atRA at different time points (D7+11 and D7+18).
To determine whether addition of all trans retinoic acid (atRA) would facilitate glomerular maturation of the organoids produced by the swirler culture method described in Examples 1-3, atRA was supplemented in the media after D7+0. All trans retinoic acid (2.5 μM) was added from D7+5 to D7+10 on C32 derived swirler organoids (FIG. 5).

[2] = test system: intermediate mesoderm (IM) cells differentiated from hPSCs or hES; assay: qPCR gene expression profiling of intermediate mesoderm at D7+0, FGF9 +/- 1 μM CHIR99021; conditions: low concentration CHIR (1 μM) days 5 to 7 with FGF9 and heparin; qPCR at D7+0
Text: FIG. 1. Generation of kidney micro-organoids in suspension culture. (A) Outline of the kidney micro-organoid differentiation protocol with images from a differentiation performed using CRL1502.C32 cells. (B) Bright field images showing uniform kidney micro-organoids on Day 7+18 (scale […]). (C, D1 and D2) Immunofluorescence and confocal images of micro-organoids showing formation of nephron segments independent of micro-organoid size and shape, including development of vascular structures (scale […]). (E) Bar graphs showing average fold change for intermediate mesoderm gene expression profiling by qPCR on Day 7+0 for FGF9+/−1 μM CHIR99021. The data represented as Mean, (F) Immunofluorescence for PAX2 for FGF9+/−1 μM CHIR99021 treatment (scale 50 μm) (D7+11). (G) Immunofluorescence and confocal images of nephron compartments within kidney micro-organoids; podocytes (NPHS1+ and MAFB+), proximal tubules (LTL+, CUBN+, LRP2+ and HNF4A+), distal tubules (ECAD), collecting duct (ECAD+ GATA3+) and endothelial cells (SOX17+ and PECAM1+) (scale 50 μm).
hPSCs or hES were differentiated into intermediate mesoderm by exposing cells to high concentration of CHIR (7 μM) for the first 4 days in APEL™ 2 or TeSR™-E6 media (Stem cell technologies) media with 3.5% protein free hybridoma media (PFHM) (Thermo Fischer), APEL™ (Stem cell technologies) or E6 media (Stem cell technologies). […]

[3] = test system: kidney organoids from monolayers of hPSC; assay: Effect of duration of initial 7 μM CHIR99021 on kidney organoid patterning (confocal microscopy); conditions: then low CHIR and FGF9+heparin to Day 7
Procedure: FIG. 2. […] (A) Confocal image of micro-kidney organoid tubules on Day 7+18 showing FITC albumin uptake (scale 5 μm). (B) Confocal images of micro-kidney organoids generated using 4 different cell lines, including hES (H9 GAP-Trap Luc2, hES3 SOX17mCherry) and iPS (CRL1502.C32 and CRL1502.3) on Day 7+18 with antibodies labelling different nephron segments (scale 50 μm). (C, D and E) hES3 SOX17mCherry derived micro-organoids generated after exposure to different days of initial 7 μM CHIR99021 for 3, 4, 5 and 6 days treatment showing bright field (C, scale 100 μm) and immunofluorescence confocal images showing SOX17+ vasculature (D) and MEIS1/2/3+ stroma (E) (scale 100 μm).
To optimise differentiation within the kidney organoid protocol, monolayers of hPSC were stimulated using a fixed concentration of CHIR99021 (7 μM) for varying durations (3, 4, 5 and 6 days) before continued culture to Day 7 in the presence of low CHIR and FGF9+heparin (FIGS. 2C, 2D and 2E). After 18 days, resulting kidney organoids were evaluated for kidney structure using confocal microscopy (FIGS. 2C, 2D and 2E). […] 4 days of initial 7 μM CHIR99021 induction was confirmed as optimal and used in further studies.

[4] = test system: kidney micro-organoids at day 7+18; assay: Drug toxicity testing in micro kidney organoids (TUNEL staining, RNA analysis); conditions: 0, 2.5 and 5 μg/ml for 24 hours
Procedure: FIG. 8. Kidney micro-organoids provides a platform for drug toxicity screening.
To evaluate the suitability of using the suspension culture method described herein to test for drug toxicity of kidneys in vitro, drug toxicity studies were conducted. Organoids produced by the method at day 7+18 were collected and randomized into treatment groups in a 24 well low attachment plates in 250 μl of media. Organoids were stimulated with different concentrations of cytotoxic drug Adriamycin (0, 2.5 and 5 μg/ml) for 24 hours. After stimulation, media was removed and organoids were fixed with 2% PFA for immunofluorescence staining analysis for apoptosis by using TUNEL staining and some organoids were lysed for RNA analysis (FIG. 8A-8D).

## CC1=C(/C=C/C(C)=C/C=C/C(C)=C/C(=O)O)C(C)(C)CCC1 [atRA, all trans retinoic acid]
[1]; 2.5 μM atRA from D7+5 to D7+10, analysis after D7+18
  podocyte phenotype by immunofluorescence compared to control group: improved the podocyte phenotype; also recorded: improved glomerular podocyte maturation
[1]; 2.5 μM atRA, D7+11 and D7+18 samples
  mRNA expression of glomerular and proximal tubular markers (qPCR) compared to control: increased expression of glomerular markers such as NPHS1 and proximal tubular markers like CUBN

## Cc1c[nH]c(-c2cnc(NCCNc3ccc(C#N)cn3)nc2-c2ccc(Cl)cc2Cl)n1 [CHIR99021]
[2]
  expression of PAX2, LHX1 and OSR1 (cap mesenchyme) compared to short CHIR exposure groups: more than 2 folds
  increase in expression of Wnt11 and GATA3 (ureteric epithelium) compared to short CHIR exposure groups: more than 2 fold
[3]; 7 μM CHIR99021 for 4 or 5 days
  kidney organoid structure after 18 days: generated kidney organoids containing patterning nephrons
[3]; 7 μM CHIR99021 for 3 days
  kidney organoid structure after 18 days: failed to generate a kidney morphology
[3]; 7 μM CHIR99021 for 6 days
  kidney organoid structure after 18 days: generating larger kidney organoids with greater NPHS1 staining, contained an expanded MEIS1^+ stromal population apparently compromising epithelial structure

## COc1cccc2c1C(=O)c1c(O)c3c(c(O)c1C2=O)C[C@@](O)(C(=O)CO)C[C@@H]3O[C@H]1C[C@H](N)[C@H](O)[C@H](C)O1 [Adriamycin]
[4]
  toxicity by expression of TUNEL apoptotic marker: induces dose dependent toxicity
[4]; RNA analysis
  expression of kidney specific genes in micro-organoids: reduces the expression of kidney specific genes
